The record followed here is paper PMC6934184, “Selective DNA-PKcs inhibition extends the therapeutic index of localized radiotherapy and chemotherapy” (The Journal of Clinical Investigation, 2019).

This test has as its target T1, PRKCB1 (PKC beta I) (Homo sapiens, UniProt P05771).
T1 construct: purchased Thermo Fisher Scientific (Life Technologies) SelectScreen
Kind of test: SelectScreen Z'LYTE. The format is biochemical. The gist of the method: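 NU5455 was profiled across the SelectScreen Broad panel of kinase activity and binding assays. Z'LYTE reactions such as CSF1R ran at apparent Km ATP, while the Adapta CAMK1 assay used ATP listed as 10. Values are given as percent.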

T1 sequence (P05771 whole entry): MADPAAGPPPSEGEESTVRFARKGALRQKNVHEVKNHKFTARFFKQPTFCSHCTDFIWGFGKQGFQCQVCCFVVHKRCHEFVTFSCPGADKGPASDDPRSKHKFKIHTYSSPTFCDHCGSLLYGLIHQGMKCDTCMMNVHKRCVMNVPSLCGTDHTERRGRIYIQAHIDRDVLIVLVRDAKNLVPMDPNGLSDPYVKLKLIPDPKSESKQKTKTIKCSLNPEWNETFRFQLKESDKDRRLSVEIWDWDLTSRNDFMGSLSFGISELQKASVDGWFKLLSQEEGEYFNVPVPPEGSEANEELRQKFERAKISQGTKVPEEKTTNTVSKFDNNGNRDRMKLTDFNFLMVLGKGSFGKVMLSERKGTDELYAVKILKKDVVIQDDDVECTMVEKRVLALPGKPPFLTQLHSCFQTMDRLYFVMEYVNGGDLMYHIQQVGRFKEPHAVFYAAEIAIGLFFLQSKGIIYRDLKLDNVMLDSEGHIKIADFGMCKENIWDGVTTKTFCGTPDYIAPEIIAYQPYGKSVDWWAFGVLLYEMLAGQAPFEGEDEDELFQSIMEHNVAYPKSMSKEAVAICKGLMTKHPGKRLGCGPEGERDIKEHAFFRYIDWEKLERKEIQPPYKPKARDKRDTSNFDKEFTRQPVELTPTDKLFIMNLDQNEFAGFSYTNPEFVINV

Take `CN(C(=O)CN1CCOCC1)c1ccc2sc3c(-c4cccc5c(=O)cc(N6CC7CCC(C6)O7)oc45)cccc3c2c1` [NU5455]: the inhibition (usually the drop in the measured response relative to a control, in per cent) at 1 µM was -0.7%.
